In US7671054B1, “Reverse-turn mimetics and method relating thereto” (Choongwae Pharma Corporation, priority 2001, dated 2010):

System: TCF4/β-catenin transcription (TOPFlash) in SW480 cells
Assay: Reporter gene assay (TOPFlash luciferase)
Assay type: cell-based
Settings: Homo sapiens, SW480, Table 4; Reporter gene assay as described in Example 6; read-out: IC50
Outline: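 SW480 cells transiently co-transfected with TOPFlash and pRL-null (4:1 µg) using Superfect, then reseeded at 3×10^4 cells/well and incubated overnight at 37 °C. Compound treatment lasted 24 h before luciferase read-out.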

| SMILES | IC50 |
| --- | --- |
| COc1ccc(CN2CC3N(C(=O)CN(C)N3C(=O)NCc3ccccc3)[C@@H](Cc3ccc(O)cc3)C2=O)cc1 (some centres unmarked) [Compound 22] | 10400 nM |
| C=CCN1CC(=O)N2[C@@H](Cc3ccc(O)cc3)C(=O)N(Cc3ccc4c(c3)OCCO4)C[C@@H]2N1C(=O)NCc1ccccc1 [Compound 187] | 1100 ± 200 nM |
| CC(C)N(C)c1cccc([C@H](C)N2C[C@H]3N(C(=O)CN(C)N3C(=O)NCc3ccccc3)[C@@H](Cc3ccc(O)cc3)C2=O)c1 [Compound 66] | 11800 nM |
| C=CCN1CC(=O)N2[C@@H](Cc3ccc(O)cc3)C(=O)N(Cc3ccc(Cl)c(N4CCOCC4)c3)C[C@@H]2N1C(=O)NCc1ccccc1 [Compound 139] | 1100 ± 100 nM |
| C#CCn1ncc2ccc(CN3C[C@H]4N(C(=O)CN(C)N4C(=O)NCc4ccccc4)[C@@H](Cc4ccc(O)cc4)C3=O)cc21 [Compound 93] | 6800 ± 1300 nM |
| C#CCNC(=O)c1ccccc1Cn1ncc2c(CN3C[C@H]4N(C(=O)CN(C)N4C(=O)NCc4ccccc4)[C@@H](Cc4ccc(O)cc4)C3=O)cccc21 [Compound 107] | 2700 ± 300 nM |
| CC(C)N(C)c1ccc(F)c([C@H](C)N2C[C@H]3N(C(=O)CN(C)N3C(=O)NCc3ccccc3)[C@@H](Cc3ccc(O)cc3)C2=O)c1 [Compound 65] | 19000 ± 7100 nM |
| C#CCN1CC(=O)N2[C@@H](Cc3ccc(O)cc3)C(=O)N(Cc3cccc4cccnc34)C[C@@H]2N1C(=O)NCc1ccccc1 [Compound 114] | 400 ± 40 nM |
| CN1CC(=O)N2[C@@H](Cc3ccc(O)cc3)C(=O)N(Cc3cccc4c3cnn4Cc3ccccc3N)C[C@@H]2N1C(=O)NCc1ccccc1 [Compound 88] | 2200 ± 200 nM |
| C=CCN1CC(=O)N2[C@@H](Cc3ccc(O)cc3)C(=O)N(Cc3cccc4sc(N5CCCCC5)nc34)C[C@@H]2N1C(=O)NCc1ccccc1 [Compound 218] | 1600 ± 1200 nM |
| CN(C)c1cc(F)c(F)cc1CN1C[C@H]2N(C(=O)CN(C)N2C(=O)NCc2ccccc2)[C@@H](Cc2ccc(O)cc2)C1=O [Compound 49] | 1400 nM |
| CN1CC(=O)N2[C@@H](Cc3ccc(NC=O)cc3)C(=O)N(Cc3cccc4ccccc34)C[C@@H]2N1C(=O)NCc1ccccc1 [Compound 68] | 4300 ± 800 nM |
| C=CCN1CC(=O)N2[C@@H](Cc3ccc(O)cc3)C(=O)N(Cc3ccc(Cl)c(Cl)c3)C[C@@H]2N1C(=O)NCc1ccccc1 [Compound 180] | 1300 ± 100 nM |
| CN(C)c1cc(Cl)ccc1CN1C[C@H]2N(C(=O)CN(C)N2C(=O)NCc2ccccc2)[C@@H](Cc2ccc(O)cc2)C1=O [Compound 45] | 2200 nM |
| C=CCN1CC(=O)N2[C@@H](Cc3ccc(O)cc3)C(=O)N(Cc3cccc4cccnc34)C[C@@H]2N1C(=O)NCc1ccccc1 [Compound 128] | 400 ± 100 nM |
| CCN(C)c1cccc(CN2C[C@H]3N(C(=O)CN(C)N3C(=O)NCc3ccccc3)[C@@H](Cc3ccc(O)cc3)C2=O)c1 [Compound 46] | 4400 nM |
| C=CCN1CC(=O)N2[C@@H](Cc3ccc(O)cc3)C(=O)N([C@H](C)c3ccccc3)C[C@@H]2N1C(=O)NCc1ccccc1 [Compound 183] | 12800 ± 900 nM |
| CN1CC(=O)N2[C@@H](Cc3ccc(O)cc3)C(=O)N(Cc3cccc4c3cnn4C)C[C@@H]2N1C(=O)NCc1ccccc1 [Compound 56] | 9300 ± 1600 nM |
| C=CCN1CC(=O)N2[C@@H](Cc3ccc(O)cc3)C(=O)N(Cc3cccc(NC)c3)C[C@@H]2N1C(=O)NCc1ccccc1 [Compound 193] | 2500 ± 500 nM |
| C=CCN1CC(=O)N2[C@@H](Cc3ccc(O)cc3)C(=O)N(Cc3cccc4c3OCO4)C[C@@H]2N1C(=O)NCc1ccccc1 [Compound 202] | 700 ± 100 nM |
| CCN1CC(=O)N2[C@@H](Cc3ccc(O)cc3)C(=O)N(Cc3cccc(N4CCOCC4)c3)C[C@@H]2N1C(=O)NCc1ccccc1 [Compound 123] | 11700 ± 1000 nM |
| C=CCN1CC(=O)N2[C@@H](CN([C@H](C)c3ccccc3)C(=O)[C@@H]2Cc2ccc(O)cc2)N1C(=O)NCc1ccccc1 [Compound 184] | 1200 ± 100 nM |
| CN(Cc1cccc(CN2C[C@H]3N(C(=O)CN(C)N3C(=O)NCc3ccccc3)[C@@H](Cc3ccc(O)cc3)C2=O)c1)C1CCOCC1 [Compound 120] | 34400 ± 4900 nM |
